For assay [1], the system named is nicotinic acetylcholine receptors (cell lines expressing various combinations of nicotinic-receptor subunits). The assay can be described thus: functional fluorescence bioassay of HPLC fractions across several cell lines. It counts as cell-based. Conditions: for nicotinic receptor agonist activity (time-bioactivity profile of HPLC fractions): several cell lines. As to the method:
(§1) The structures of compounds 1-6 are set forth below.
(§2) Biological Investigation of Phantasmidine. Semi-preparative HPLC-bioassay analysis was conducted as described previously^9 on the alkaloid fraction of E. anthonyi in several cell lines, including TE-671 (neuromuscular),^16 SH-SY5Y (ganglionic α3*, α3β4*, α7),^15 and several transfected cell lines expressing nicotinic receptor subunit combinations of α2-4 and β2/β4.^12,13,17
(§3) Collected analytical scale fractions in 96-well plates were reconstituted in situ with 300 μL Hanks balanced salt solution containing 20 mM HEPES at pH 7.4 (HBSS/HEPES) and were used as such. Cell lines expressing various nicotinic receptors were maintained in culture and used for functional fluorescence assays including SH-SY5Y, IMR-32, TE-671, KXα3β4R2, KXα4β4R1, and KXα4β2R2, as previously described.^9,11 Briefly, cells were plated onto 96-well poly-D-lysine-coated plates in Dulbecco's modified minimum essential media supplemented with 10% fetal bovine serum (supplemented with Geneticin G418 for KXα3β4R2, KXα4β4R1, and KXα4β2R2 cells) and grown to near confluence. The media was aspirated and the cells were gently washed with 2×100 μL HBSS/HEPES (pH 7.4). A solution of Molecular Devices no-wash membrane potential dye (30 μL) was added and the cells incubated in the dark at room temperature for 1 h. Plates were read on a FLEXSTATION™ (Molecular Devices) robotic plate reader at an excitation wavelength of 530 nm, emission wavelength of 565 nm, with a cutoff filter at 550 nm. Basal fluorescence was measured for 15 s and 30 μL of reconstituted E. anthonyi fraction in HBSS/HEPES were added. Response was measured for 105 s and 30 μL of 300 μM nicotine were added. The nicotine response was measured for 40 s and 30 μL of 160 mM KCl were added. Maximal fluorescence was measured for 40 s. Average basal fluorescence was subtracted and response was taken as the peak fluorescence for each addition divided by the maximal KCl fluorescence. Responses for each fraction were plotted as a function of time and compared to the UV and total ion chromatograms to identify active components. Preparative-scale isolation was then conducted and structures of active components were elucidated.

For assay [2], the target named is T1, KXα3β4R2 cells (HEK cells expressing rat α3 and β4 nicotinic receptor subunits) (Rattus norvegicus, UniProt P04757+P12392).
T1 construct: expressed in transfected cells; host or cells: HEK cells (KXα3β4R2)
T1 sequence (P12392 21-495): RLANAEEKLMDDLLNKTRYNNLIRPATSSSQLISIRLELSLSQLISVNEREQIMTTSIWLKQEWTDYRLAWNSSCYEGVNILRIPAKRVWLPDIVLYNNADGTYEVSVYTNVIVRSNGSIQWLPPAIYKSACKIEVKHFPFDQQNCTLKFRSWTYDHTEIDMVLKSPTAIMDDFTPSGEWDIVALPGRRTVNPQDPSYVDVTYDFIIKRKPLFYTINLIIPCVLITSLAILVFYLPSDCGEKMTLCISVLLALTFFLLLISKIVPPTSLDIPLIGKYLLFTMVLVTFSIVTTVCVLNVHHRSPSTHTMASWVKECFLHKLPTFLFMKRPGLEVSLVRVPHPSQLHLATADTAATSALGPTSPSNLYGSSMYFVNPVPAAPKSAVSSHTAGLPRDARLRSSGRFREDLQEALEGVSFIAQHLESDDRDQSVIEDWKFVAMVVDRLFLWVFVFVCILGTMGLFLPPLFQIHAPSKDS
T1 sequence (P04757 26-499): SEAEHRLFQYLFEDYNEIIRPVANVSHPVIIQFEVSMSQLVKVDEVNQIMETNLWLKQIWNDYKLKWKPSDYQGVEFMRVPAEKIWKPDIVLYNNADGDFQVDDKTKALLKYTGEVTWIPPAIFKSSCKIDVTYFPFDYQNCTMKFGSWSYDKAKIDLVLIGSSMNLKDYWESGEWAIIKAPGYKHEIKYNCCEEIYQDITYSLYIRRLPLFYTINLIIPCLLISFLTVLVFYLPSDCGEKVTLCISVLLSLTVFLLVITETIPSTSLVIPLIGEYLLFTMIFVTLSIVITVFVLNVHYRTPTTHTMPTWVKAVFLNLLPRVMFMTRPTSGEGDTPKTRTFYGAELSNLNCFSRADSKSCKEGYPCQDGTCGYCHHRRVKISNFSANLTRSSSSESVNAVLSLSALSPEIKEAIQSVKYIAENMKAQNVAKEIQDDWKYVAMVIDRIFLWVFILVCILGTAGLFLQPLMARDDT
In kind it is cell-based.

Assay [3] concerns nicotinic receptors. Conditions: cited from earlier work.
Assay [4] concerns the target T2, TE-671 cells (neuromuscular) (Homo sapiens, UniProt P02708+P07510+Q07001).
T2 construct: endogenous in cells; host or cells: TE-671
As to the kind of experiment: functional fluorescence (membrane potential dye) bioassay of HPLC fractions. In kind it is cell-based. The method, then: as §1, §2, §3

The test system of assay [5] is IMR-32 cells (β4 nicotinic subunits). Described as above. It counts as cell-based. As to the method: as §1, §2, §3
Assay [6] has as its system SH-SY5Y cells (ganglionic α3*, α3β4*, α7). Described as above. In kind it is cell-based. The method, then: as §1, §2, §3
Assay [7] addresses T3, KXα4β2R2 cells (β2-containing) (Rattus norvegicus, UniProt P09483+P12390).
T3 construct: expressed in transfected cells; host or cells: KXα4β2R2 (G418-selected transfected line)
The description is as above. In kind it is cell-based. The method, then: as §1, §2, §3

Assay [8] addresses T4, KXα4β4R1 cells (β4 nicotinic subunits) (Rattus norvegicus, UniProt P09483+P12392).
T4 construct: expressed in transfected cells; host or cells: KXα4β4R1 (G418-selected transfected line)
The description is as above. It counts as cell-based. As to the method: as §1, §2, §3

The target of assay [9] is T5, K-177 cells (β2-containing) (Homo sapiens, UniProt P17787+P43681).
T5 construct: expressed in transfected cells; host or cells: K-177
The assay can be described thus: functional fluorescence bioassay of HPLC fractions. It counts as cell-based. The method, then:
as §1, §2

“Also recorded” adds a separate entry of the source.

T3 sequence (P12390 25-500): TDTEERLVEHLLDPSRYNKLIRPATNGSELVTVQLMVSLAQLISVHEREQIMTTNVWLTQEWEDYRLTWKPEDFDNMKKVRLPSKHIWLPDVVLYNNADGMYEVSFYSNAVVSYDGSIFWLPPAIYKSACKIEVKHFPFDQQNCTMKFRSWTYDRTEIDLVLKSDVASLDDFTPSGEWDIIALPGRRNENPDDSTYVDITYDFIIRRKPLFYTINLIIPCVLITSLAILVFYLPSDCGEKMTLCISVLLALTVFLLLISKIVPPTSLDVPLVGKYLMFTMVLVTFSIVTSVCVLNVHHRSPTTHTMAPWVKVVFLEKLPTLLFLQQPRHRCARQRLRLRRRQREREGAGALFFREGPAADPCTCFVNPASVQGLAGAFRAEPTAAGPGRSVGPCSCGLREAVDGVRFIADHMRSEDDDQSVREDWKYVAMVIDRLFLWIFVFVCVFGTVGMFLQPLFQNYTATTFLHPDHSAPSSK
T3 sequence (P09483 31-630): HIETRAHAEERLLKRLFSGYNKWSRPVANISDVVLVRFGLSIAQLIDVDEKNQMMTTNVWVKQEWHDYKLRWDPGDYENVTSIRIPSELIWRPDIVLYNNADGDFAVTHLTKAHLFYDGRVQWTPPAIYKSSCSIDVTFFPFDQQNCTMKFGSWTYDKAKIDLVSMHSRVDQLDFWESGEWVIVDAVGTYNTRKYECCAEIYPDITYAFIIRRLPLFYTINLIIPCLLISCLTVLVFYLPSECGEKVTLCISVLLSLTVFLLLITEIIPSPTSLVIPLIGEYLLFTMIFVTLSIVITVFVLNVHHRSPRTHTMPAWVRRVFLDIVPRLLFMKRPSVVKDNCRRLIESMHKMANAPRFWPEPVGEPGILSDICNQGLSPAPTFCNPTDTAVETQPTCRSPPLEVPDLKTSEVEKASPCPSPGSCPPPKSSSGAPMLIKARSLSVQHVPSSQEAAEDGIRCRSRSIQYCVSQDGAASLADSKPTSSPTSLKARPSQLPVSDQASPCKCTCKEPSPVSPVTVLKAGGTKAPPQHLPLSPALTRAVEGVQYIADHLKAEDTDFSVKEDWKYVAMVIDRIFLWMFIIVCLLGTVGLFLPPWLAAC
T4 sequence (P09483 31-630): as above
T4 sequence (P12392 21-495): as the sequence (P12392 21-495) above
T2 sequence (P02708 21-457): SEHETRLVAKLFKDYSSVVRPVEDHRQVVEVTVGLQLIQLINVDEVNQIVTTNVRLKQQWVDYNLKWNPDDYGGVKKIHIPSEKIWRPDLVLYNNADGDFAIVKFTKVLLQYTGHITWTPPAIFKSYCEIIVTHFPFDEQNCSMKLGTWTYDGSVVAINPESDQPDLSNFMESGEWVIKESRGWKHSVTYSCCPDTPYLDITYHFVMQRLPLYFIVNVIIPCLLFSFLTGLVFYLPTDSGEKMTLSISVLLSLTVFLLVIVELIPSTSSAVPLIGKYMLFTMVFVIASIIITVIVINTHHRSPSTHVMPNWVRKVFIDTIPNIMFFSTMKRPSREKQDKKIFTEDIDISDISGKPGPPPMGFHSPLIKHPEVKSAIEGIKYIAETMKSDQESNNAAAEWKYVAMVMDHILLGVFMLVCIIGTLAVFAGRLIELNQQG
T2 sequence (P11230 24-501 partner): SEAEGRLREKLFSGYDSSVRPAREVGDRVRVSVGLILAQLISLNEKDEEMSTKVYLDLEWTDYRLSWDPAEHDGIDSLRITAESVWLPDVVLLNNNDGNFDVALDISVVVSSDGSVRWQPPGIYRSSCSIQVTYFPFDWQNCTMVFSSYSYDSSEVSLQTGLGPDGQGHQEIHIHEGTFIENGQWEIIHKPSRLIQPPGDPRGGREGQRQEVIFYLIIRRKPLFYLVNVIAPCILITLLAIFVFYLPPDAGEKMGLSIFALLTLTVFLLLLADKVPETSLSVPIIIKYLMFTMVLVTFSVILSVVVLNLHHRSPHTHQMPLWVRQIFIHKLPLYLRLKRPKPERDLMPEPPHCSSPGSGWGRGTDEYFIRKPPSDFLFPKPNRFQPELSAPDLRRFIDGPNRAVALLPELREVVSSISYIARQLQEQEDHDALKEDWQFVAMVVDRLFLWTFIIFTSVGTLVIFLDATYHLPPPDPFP
T2 sequence (P07510 23-517): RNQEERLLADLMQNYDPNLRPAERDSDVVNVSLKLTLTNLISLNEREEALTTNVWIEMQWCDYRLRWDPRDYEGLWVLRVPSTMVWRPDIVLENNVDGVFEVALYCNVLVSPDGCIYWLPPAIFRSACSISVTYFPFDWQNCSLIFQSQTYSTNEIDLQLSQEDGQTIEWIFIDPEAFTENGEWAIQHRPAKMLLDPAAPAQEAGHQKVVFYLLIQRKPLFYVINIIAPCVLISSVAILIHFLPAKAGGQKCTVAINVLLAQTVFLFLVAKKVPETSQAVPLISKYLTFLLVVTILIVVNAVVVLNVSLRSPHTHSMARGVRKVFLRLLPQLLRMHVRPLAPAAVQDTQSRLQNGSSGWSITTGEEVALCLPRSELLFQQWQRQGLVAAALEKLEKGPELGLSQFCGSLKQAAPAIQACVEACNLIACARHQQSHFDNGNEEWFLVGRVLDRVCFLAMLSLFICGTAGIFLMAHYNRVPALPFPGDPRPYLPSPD
T2 sequence (Q07001 22-517): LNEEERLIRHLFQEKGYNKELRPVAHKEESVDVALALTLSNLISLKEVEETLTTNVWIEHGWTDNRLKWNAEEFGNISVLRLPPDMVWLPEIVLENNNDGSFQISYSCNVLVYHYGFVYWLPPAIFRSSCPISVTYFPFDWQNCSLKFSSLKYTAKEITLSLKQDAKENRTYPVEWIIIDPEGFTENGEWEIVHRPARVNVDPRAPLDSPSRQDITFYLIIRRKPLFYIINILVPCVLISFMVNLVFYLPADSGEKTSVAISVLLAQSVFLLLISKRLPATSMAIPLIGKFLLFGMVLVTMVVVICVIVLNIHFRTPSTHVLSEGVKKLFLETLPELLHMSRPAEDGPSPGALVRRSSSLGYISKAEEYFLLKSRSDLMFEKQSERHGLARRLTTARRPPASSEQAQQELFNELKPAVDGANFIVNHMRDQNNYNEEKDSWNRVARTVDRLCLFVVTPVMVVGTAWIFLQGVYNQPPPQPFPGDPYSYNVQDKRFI

For the compound `Clc1ccc(C2CC3CCC2N3)cn1` (centres unmarked) [Compound 1, epibatidine], the “nicotinic receptor agonist activity (time-bioactivity profile of HPLC fractions)” value in [1] is given as “active in all cell lines to varying degrees; also recorded: greatest activity in the sample regardless of cell line examined”.

Regarding `CC(=O)N[C@H]1CCCN2CCCC[C@@H]12` [Compound 2, epiquinamide, reference compound], the “nicotinic receptor agonist activity (time-bioactivity profile of HPLC fractions)” value in assay [1] is recorded as “artifact due to a cross-contamination from 1”. In addition, the “nicotinic-agonist activity of isolated fraction” value in assay [2] (cells expressing α3 and β4 subunits, fractions of E. anthonyi alkaloid extract) was “artifactual activity from cross contamination with epibatidine”.

Take `CN1C2CCC1C(c1ccc(Cl)nc1)C2` (centres unmarked) [Compound 3, N-methylepibatidine]: in assay [1], the “nicotinic receptor agonist activity (time-bioactivity profile of HPLC fractions)” value is “responsible for the leading edge of the epibatidine activity; also recorded: significant bioactivity”. The “potency relative to epibatidine” value in [3] is “essentially equipotent with epibatidine”.

With `Clc1ccc2c(n1)O[C@@]13CC[C@@H]1NC[C@@H]23` [Compound 4, Phantasmidine], the “relative activity compared to 1 (height and area of activity peaks)” value is listed as “less activity” in [4]; “higher relative activities” in assay [5]; “higher relative activities” in [6]; “less activity” in assay [7]; “higher relative activities” in assay [8]; “less activity” in assay [9]. Moreover, in assay [2] (KXα3β4R2 cells), the “relative activity compared to 1 (height and area of activity peaks)” value is on record as “higher relative activities”. In addition, in [1] (across several cell lines expressing different nicotinic-receptor subtypes), the “subtype selectivity relative to 1” value is given as “altered subtype selectivity relative to 1”. Besides, the “nicotinic receptor agonist activity (time-bioactivity profile of HPLC fractions)” value in assay [1] is “significant bioactivity; also recorded: nicotinic agonist”.

The record behind these values is US9902734B2, “Nicotinic acetylcholine receptor agonists” (priority 2010, dated 2018).
